Source: ChEMBL document CHEMBL1141566, “Synthesis and antitumor evaluation of bis aza-anthracene-9,10-diones and bis aza-anthrapyrazole-6-ones” (2008)

Assays:
Format in all cases: functional
HT-29 [1] = test: Effect on proapoptotic LTBR gene expression in human HT29 cells after 6 hrs
HT-29 [2] = test: Effect on proapoptotic BAX gene expression in human HT29 cells after 12 hrs
HT-29 [3] = test: Effect on apoptosis in human HT29 PI-/AnnV+ cells after 24 hrs by biparametric flow cytometric analysis; conditions: HT-29, 24 h, read-out: LC50 (the source's name)
HT-29 [4] = test: Effect on apoptosis in human HT29 PI-/AnnV- cells after 24 hrs by biparametric flow cytometric analysis; conditions: HT-29, 24 h, read-out: LC50 (the source's name)
HT-29 [5] = test: Effect on proapoptotic TNFRSF10A gene expression in human HT29 cells after 6 hrs
HT-29 [6] = test: Effect on proapoptotic NOD1 gene expression in human HT29 cells after 6 hrs
HT-29 [7] = test: Effect on apoptotic BAG4 gene expression in human HT29 cells after 12 hrs
HT-29 [8] = test: Effect on proapoptotic TNFRSF10A gene expression in human HT29 cells after 12 hrs
HT-29 [9] = test: Effect on proapoptotic CARD8 gene expression in human HT29 cells after 6 hrs
HT-29 [10] = test: Effect on apoptotic BIRC6 gene expression in human HT29 cells after 6 hrs
HT-29 [11] = test: Effect on apoptosis in human HT29 PI-/AnnV+ cells after 6 hrs by biparametric flow cytometric analysis; conditions: HT-29, 6 h, read-out: LC50 (the source's name)
HT-29 [12] = test: Effect on apoptotic NOL3 gene expression in human HT29 cells after 12 hrs
HT-29 [13] = test: Effect on apoptotic MCL1 gene expression in human HT29 cells after 12 hrs
HT-29 [14] = test: Effect on apoptosis in human HT29 PI+/AnnV+ cells after 6 hrs by biparametric flow cytometric analysis; conditions: HT-29, 6 h, read-out: LC50 (the source's name)
HT-29 [15] = test: Effect on proapoptotic BCL2L11 gene expression in human HT29 cells after 6 hrs
HT-29 [16] = test: Effect on apoptotic CFLAR gene expression in human HT29 cells after 12 hrs
HT-29 [17] = test: Effect on apoptosis in human HT29 PI-/AnnV- cells after 6 hrs by biparametric flow cytometric analysis; conditions: HT-29, 6 h, read-out: LC50 (the source's name)
HT-29 [18] = test: Effect on proapoptotic BAK1 gene expression in human HT29 cells after 12 hrs
HT-29 [19] = test: Cytotoxicity against human HT29 cells after 72 hrs; conditions: HT-29, 72 h
HT-29 [20] = test: Effect on proapoptotic BNIP1 gene expression in human HT29 cells after 6 hrs
HT-29 [21] = test: Effect on proapoptotic BNIP3L gene expression in human HT29 cells after 12 hrs
HT-29 [22] = test: Effect on proapoptotic BAX gene expression in human HT29 cells after 6 hrs
HT-29 [23] = test: Effect on proapoptotic LTBR gene expression in human HT29 cells after 12 hrs
HT-29 [24] = test: Effect on apoptosis in human HT29 PI-/AnnV+ cells after 12 hrs by biparametric flow cytometric analysis; conditions: HT-29, 12 h, read-out: LC50 (the source's name)
HT-29 [25] = test: Effect on apoptosis in human HT29 PI+/AnnV+ cells after 12 hrs by biparametric flow cytometric analysis; conditions: HT-29, 12 h, read-out: LC50 (the source's name)
HT-29 [26] = test: Effect on apoptosis in human HT29 PI+/AnnV- cells after 6 hrs by biparametric flow cytometric analysis; conditions: HT-29, 6 h, read-out: LC50 (the source's name)
HT-29 [27] = test: Effect on apoptotic BIRC8 gene expression in human HT29 cells after 12 hrs
HT-29 [28] = test: Effect on proapoptotic TNFRSF10B gene expression in human HT29 cells after 12 hrs
HT-29 [29] = test: Effect on apoptotic IGF1R gene expression in human HT29 cells after 6 hrs
HT-29 [30] = test: Effect on proapoptotic BFAR gene expression in human HT29 cells after 12 hrs
HT-29 [31] = test: Effect on apoptotic BAG4 gene expression in human HT29 cells after 6 hrs
HT-29 [32] = test: Effect on apoptotic BIRC8 gene expression in human HT29 cells after 6 hrs
HT-29 [33] = test: Effect on proapoptotic BFAR gene expression in human HT29 cells after 6 hrs
HT-29 [34] = test: Effect on apoptotic GADD45A gene expression in human HT29 cells after 6 hrs
HT-29 [35] = test: Effect on proapoptotic BNIP3L gene expression in human HT29 cells after 6 hrs
HT-29 [36] = test: Effect on apoptotic CFLAR gene expression in human HT29 cells after 6 hrs
HT-29 [37] = test: Effect on proapoptotic CASP9 gene expression in human HT29 cells after 6 hrs
HT-29 [38] = test: Effect on apoptotic BCL2L10 gene expression in human HT29 cells after 6 hrs
HT-29 [39] = test: Effect on proapoptotic BCLAF1 gene expression in human HT29 cells after 12 hrs
HT-29 [40] = test: Effect on proapoptotic BAK1 gene expression in human HT29 cells after 6 hrs
HT-29 [41] = test: Effect on proapoptotic CARD6 gene expression in human HT29 cells after 6 hrs
HT-29 [42] = test: Effect on proapoptotic CIDEB gene expression in human HT29 cells after 6 hrs
HT-29 [43] = test: Effect on apoptotic BCL10 gene expression in human HT29 cells after 12 hrs
HT-29 [44] = test: Effect on apoptosis in human HT29 PI+/AnnV- cells after 12 hrs by biparametric flow cytometric analysis; conditions: HT-29, 12 h, read-out: LC50 (the source's name)
HT-29 [45] = test: Effect on apoptosis in human HT29 PI+/AnnV+ cells after 24 hrs by biparametric flow cytometric analysis; conditions: HT-29, 24 h, read-out: LC50 (the source's name)
HT-29 [46] = test: Effect on proapoptotic CIDEB gene expression in human HT29 cells after 12 hrs
HT-29 [47] = test: Effect on apoptotic BIRC3 gene expression in human HT29 cells after 12 hrs
HT-29 [48] = test: Effect on apoptotic MCL1 gene expression in human HT29 cells after 6 hrs
HT-29 [49] = test: Effect on proapoptotic CARD6 gene expression in human HT29 cells after 12 hrs
HT-29 [50] = test: Effect on apoptotic BAG1 gene expression in human HT29 cells after 6 hrs
HT-29 [51] = test: Effect on apoptosis in human HT29 PI+/AnnV- cells after 24 hrs by biparametric flow cytometric analysis; conditions: HT-29, 24 h, read-out: LC50 (the source's name)
HT-29 [52] = test: Effect on proapoptotic BCL2 gene expression in human HT29 cells after 6 hrs
HT-29 [53] = test: Effect on apoptotic AKT1 gene expression in human HT29 cells after 12 hrs
HT-29 [54] = test: Effect on apoptotic NOL3 gene expression in human HT29 cells after 6 hrs
HT-29 [55] = test: Effect on apoptotic IGF1R gene expression in human HT29 cells after 12 hrs
HT-29 [56] = test: Effect on apoptotic BRAF gene expression in human HT29 cells after 12 hrs
HT-29 [57] = test: Effect on proapoptotic CASP7 gene expression in human HT29 cells after 6 hrs
HT-29 [58] = test: Effect on apoptotic BCL2L1 gene expression in human HT29 cells after 6 hrs
HT-29 [59] = test: Effect on apoptosis in human HT29 PI-/AnnV- cells after 12 hrs by biparametric flow cytometric analysis; conditions: HT-29, 12 h, read-out: LC50 (the source's name)

## CN(C)CCn1nc2c3c(c(NCCCN(C)CCCNc4ccc5c6c(nn5CCN(C)C)-c5cnccc5C(=O)c46)ccc31)C(=O)c1ccncc1-2
HT-29 [1]
  Fold change: -5.3
HT-29 [2]
  Fold change: 1.3
HT-29 [3]
  CC50: 62.3 µM
HT-29 [4]
  CC50: 8.3 µM
HT-29 [5]
  Fold change: -2.5
HT-29 [6]
  Fold change: 4.2
HT-29 [7]
  Fold change: -3.3
HT-29 [8]
  Fold change: -5.9
HT-29 [9]
  Fold change: 4
HT-29 [10]
  Fold change: -2.6
HT-29 [11]
  CC50: 22.3 µM
HT-29 [12]
  Fold change: -3.8
HT-29 [13]
  Fold change: -2.7
HT-29 [14]
  CC50: 1.8 µM
HT-29 [15]
  Fold change: 7.7
HT-29 [16]
  Fold change: -3.3
HT-29 [17]
  CC50: 72.5 µM
HT-29 [18]
  Fold change: 4.1
HT-29 [19]
  GI50: 0.00036 µM
  LC50 (concentration killing 50% of cells): 9.8 µM
  TGI: 1.3 µM
HT-29 [20]
  Fold change: 3
HT-29 [21]
  Fold change: 3.6
HT-29 [22]
  Fold change: 4.1
HT-29 [23]
  Fold change: -4.3
HT-29 [24]
  CC50: 32.4 µM
HT-29 [25]
  CC50: 3.4 µM
HT-29 [26]
  CC50: 3.4 µM
HT-29 [27]
  Fold change: -33.3
HT-29 [28]
  Fold change: -4.3
HT-29 [29]
  Fold change: -38.5
HT-29 [30]
  Fold change: -2.5
HT-29 [31]
  Fold change: -7
HT-29 [32]
  Fold change: -5.6
HT-29 [33]
  Fold change: -7
HT-29 [34]
  Fold change: 8.8
HT-29 [35]
  Fold change: 7.4
HT-29 [36]
  Fold change: -2.2
HT-29 [37]
  Fold change: 2.2
HT-29 [38]
  Fold change: 2.2
HT-29 [39]
  Fold change: 136
HT-29 [40]
  Fold change: 4.5
HT-29 [41]
  Fold change: -2.7
HT-29 [42]
  Fold change: 8.3
HT-29 [43]
  Fold change: -2.2
HT-29 [44]
  CC50: 4.2 µM
HT-29 [45]
  CC50: 22.2 µM
HT-29 [46]
  Fold change: 2.4
HT-29 [47]
  Fold change: -6.3
HT-29 [48]
  Fold change: -5
HT-29 [49]
  Fold change: -6.7
HT-29 [50]
  Fold change: -2.5
HT-29 [51]
  CC50: 7.2 µM
HT-29 [52]
  Fold change: -2.8
HT-29 [53]
  Fold change: -6.3
HT-29 [54]
  Fold change: -2.5
HT-29 [55]
  Fold change: -4
HT-29 [56]
  Fold change: -9.1
HT-29 [57]
  Fold change: 5.6
HT-29 [58]
  Fold change: 1.2
HT-29 [59]
  CC50: 60 µM
